Laboratory results published in patent US7635722B1, “Chemical induced intracellular hyperthermia” (priority 1998, dated 2009).
Where two headings read alike, the source gives them in different places.

How the values were obtained:
[1] = tested on: chronically HIV infected HUT-78 cells; test: in vitro inactivation of chronically HIV infected cells; format: cell-based; conditions: varying concentrations of DNP (FIG. 16)
Source text: Clinical assessment and treatment evaluation: HIV and HIV-infected T cells are known to be more sensitive to killing by heat than uninfected lymphocytes. Susceptibility to heat killing is enhanced with increased oxygen free radical production. Acute and chronically infected cells have decreased levels of manganous superoxide dismutase (MnSOD) activity. MnSOD is located exclusively in mitochondria. Mathematical modeling of human HIV production and CD4+ T cell turnover predicts that reducing both free virus and actively infected cells by a minimum of 40% with 1 hour of 42° C. therapeutic hyperthermia every third day will promote recovery of the uninfected T-cell population. Human HIV studies with extracorporeal hyperthermia of 41-42° C. have reported isolated cases of extended patient survival, elimination of detectable virus, and improvement of Kaposi's sarcoma lesions. DNP is known to generate intracellular hyperthermia and oxygen free radicals from the level of the inner mitochondrial membrane. Studies on in vitro inactivation of chronically HIV infected HUT-78 cells by various concentrations of DNP are graphically represented in FIG. 16.

[2] = format: in vivo, human
Experimental: Placement of physiologic monitoring sensors, intravenous fluids, supplemental oxygen (4 l/min) and optional oral diazepam sedation (5-10 mg) is initiated prior to treatment. Patients receive 0.85 to 1.0 liter of intravenous (IV) 5% dextrose in 0.25 normal saline per hour alternated with 5% dextrose in 0.5 normal saline plus 7.5 to 10 meq of KCl per liter to insure a urinary output of no less than 1 ml/kg/hr. […] Two hours after treatment and 48 hours post-treatment, serum chemistries and hematologic profiles are repeated. A typical patient flow chart is depicted in FIG. 14.
Pretreatment protocol: the patient was given 10 mg diazepam by mouth and dressed into a modified wet suit. The wet suit was cut lengthwise at the arms and legs. Velcro strappings were attached at the cuttings for closure, rapid removal or exposure of the limb(s). After placement of monitoring sensors, they were started on IV fluids of 5% dextrose, 0.5 normal saline with 7 meq K^+, infused at an initial rate of 12 cc/kg/hr. Evaporative heat loss from the head was minimized by a plastic shower cap and towels. A 401AC temperature probe (YSI Incorporated, Yellow Springs, Ohio) was inserted 11 cm. into the rectum. […] A TEEM 100 Metabolic Analysis System (AeroSport Inc., Ann Arbor, Mich.), with a modified face mask and oxygen delivery system (38-40% 02 saturation) for patient comfort and increased accuracy, was attached to the patient. Oxygen consumption (V02), carbon dioxide production (VC02), expired air volume (VE), heart rate (HR), and Kcal of heat produced were measured in 20 second intervals and extrapolated to minute or hourly rates.
(§1) Pretreatment protocol: all medications were stopped 2 weeks prior to treatment. The patient refused taking diazepam, placement of a Foley catheter and oxygen face mask. They dressed themself into a dry cold water immersion suit (Stearns, ISS-590I, Universal Adult) designed to prevent heat loss and modified for easy placement of physiologic monitors. Equipment for measurement of heart rate, temperature, carbon dioxide production and Kcal of heat produced were conducted as outlined in Example 1. An oral breathing tube was used to measure V02 from room air. Urine output was measured when the patient voluntarily urinated through a “Texas” catheter (superficial condom tightly fitted around the head of the penis with tubing connected to urine collection bag). The patient was informed that hyperthermia would be administered as tolerated by their stamina and monitored clinical parameters, not to exceed 5 hours, on a daily or every other day basis, for a total of 5 sessions.
Pretreatment protocol: the evening prior treatment the patient was instructed not to eat and dress in cotton undergarments. Approximately 4 hours prior to treatment 2 mg alprazolam was administered by mouth. The patient dressed themself into a dry cold water immersion suit (Stearns, previously described) with headgear. Monitoring sensors, including EKG display, IV fluids and Foley catheter were attached and the suit was zipped closed. The patient opted for oxygen supplementation. The modified face mask was connected to the TEEM 100 metabolic Analysis System for V02 measurements. Data was recorded as previously described.
Pretreatment protocol: the patient was transfused with three units of packed red blood cells. A Foley catheter was inserted on each day of treatment. They were covered in a water soaked blanket containing a polyethylene lining. A shower cap with towels was used to prevent heat loss from the head. Intravenous lines were placed into both arms with 19 gauge intracaths. EKG, heart rate, rectal thermistor, and V02 monitors were attached. Oxygen supplemented facemask and equipment was attached and data monitored as previously described under Example 1.
Pretreatment protocol: the patient was transfused with 2 units of packed red blood cells 48 hours prior to undergoing treatment. Intravenous fluids (Lactated Ringer's solution) were administered at a rate of 100 cc/hour. […]

[3] = tested on: Kaposi's sarcoma; test: DNP hyperthermia, Kaposi's sarcoma lesions (Example 2); format: in vivo, human
Experimental: as §1
Treatment procedure: Baseline reading for 5 minutes established an average V02 of 300 cc/min. An initial dose of 2 mg/kg of DNP was administered over a 2 minute period. V02 increased and stabilized at 15 minutes at 340-380 cc/min. An additional 2 mg/kg DNP infusion was given, the V02 increased and stabilized at 610-630 cc/min. […]

[4] = Example 3, peak after second dose of 2.0 mg/kg DNP
[5] = Example 3, stable plateau after additional 1.0 mg/kg DNP
[6] = Example 4, DNP 1 mg/kg + 3 x 0.5 mg/kg after mephenteramine

For `O=[N+]([O-])c1ccc(O)c([N+](=O)[O-])c1` [DNP, 2,4-dinitrophenol], the “killing of chronically HIV infected HUT-78 cells” value [1] was “killing of chronically HIV infected HUT-78 cells”, the rectal body temperature ([2]; Example 1, DNP 1 + 3 mg/kg IV plus glucagon, maintained about 1 hour) was 40 °C and the post-treatment toxicity ([2]; Example 1, DNP with glucagon) was “No immediate or delayed post-treatment toxicity”. For the same molecule, the V02 above baseline ([2]; Example 1, stabilized after initial 1 mg/kg DNP IV) was 40%, the V02 ([2]; Example 2, 15 minutes after initial 2 mg/kg DNP, baseline 300 cc/min) was 340-380 cc/min and the V02 ([2]; Example 2, after additional 2 mg/kg DNP infusion) was 610-630 cc/min. The blood pressure ([2]; Example 2, gradual fall noted at 90 minutes) was 100/60, the repeat blood work ([2]; Example 2, on days of treatment) was “no significant hematologic, electrolyte, liver or kidney changes from baseline” and the “tolerability of the procedure” value ([2]; Example 2, period of 7 hours) was “without any untoward effects”. For the same molecule, the body core temperature ([2]; Example 2, within 60 minutes, DNP 2 + 2 mg/kg) was 39.4 °C, the “tolerability of the procedure” value ([2]; Example 3) was “experienced no problems during the procedure but was noticeably fatigued by hour 3” and the oral temperature ([2]; Example 3, 6.5 to 7 hours after treatment, with chills and malaise) was 38.7 degrees centigrade. It also gave a V02 per kg ([2]; Example 3, after 1 mg/kg DNP, baseline 3.7) of 5.3 cc/kg/min, a V02 ([2]; Example 3, after 1 mg/kg DNP, baseline 220 cc/min) of 250 cc/min and a V02 [2, 4] of 400 cc/min. For the same molecule, the V02 per kg [2, 4] was 8.8 cc 02/kg/min, the V02 [2, 5] was 600 cc/min and the V02 per kg [2, 5] was 10.8 cc/kg/min. The V02 [2, 6] was 780-820 cc/min, the “core temperature, maximum” value [2, 6] was 41.4 °C and the plateau temperature ([2]; Example 4, maintained 2 hours and 30 minutes) was 41.5 °C. The “VO2 uptake above baseline” value ([2]; Example 7, 300 mg capsule of DNP orally, three hours before, immediately prior to emission scan) was 40%, the VO2 above baseline ([2]; Example 8, DNP 1 + 2 mg/kg IV) was 50% and the “blood pressure and cardiac rates” value ([2]; Example 9) was “remained within normal limits”. For the same molecule, the VO2 ([2]; Example 9, 15 minutes after additional 1 mg/kg DNP) was 420 cc/minute, the VO2 ([2]; Example 9, 20 minutes after 2 mg/kg DNP IV, baseline 250 cc/minute) was 340-360 cc/minute and the VO2 ([2]; Example 9, 20 minutes after additional 1 mg/kg DNP at hour 3) was 450-500 cc/minute. The “tolerability of the procedure” value ([2]; Example 9, 6 hours) was “without any adverse effects”, the “rectal probe temperature increase over baseline, maximum” value ([2]; Example 9, DNP with methylene blue) was 1.3 °C and the general toxicity ([2]; Example 9, at any time during treatment) was “no evidence of general toxicity”. The VO2 ([2]; Example 9, declined by hour 3) was 360-380 cc/minute, the fatigue ([2]; Example 10) was “notably fatigued at hour 5” and the sweating ([2]; Example 10) was “sweat profusely”. For the same molecule, the VO2 ([2]; Example 10, 20 minutes after 1 mg/kg DNP, baseline 160 cc/min, interferon-alpha 6 hours before) was “approximately 210 cc/min”, the VO2 ([2]; Example 10, 20 minutes after additional 2 mg/kg DNP) was 420 cc/min and the VO2 ([2]; Example 10, 20 minutes after additional 2.0 mg/kg DNP) was 360 cc/min. The VO2 ([2]; Example 10, declined two hours after last dose) was 280 cc/min, the “rectal temperature above normal baseline” value ([2]; Example 10, no efforts to prevent body heat loss) was at most 1.3 °C and the VO2 ([2]; Example 10, peak 20 minutes after second dose of 1 mg/kg DNP) was 250 cc/min. The “anal tumor diminished in size” value ([3]; 5th and last day of therapy) was “approximately 60%” and the “oral and anal KS lesions” value ([3]; 30 days post-treatment) was “complete regression of both oral and anal KS lesions”.
